Assay results as given in the supplement of paper PMC10307832.

Compound: CC1=CC(=C(N1C2=CC=C(C=C2)Cl)C)C(=O)CN3CCCCC3 [IU1-47] + NC(=O)Nc1cc(-c2cccc(F)c2)sc1C(=O)N[C@H]1CCCNC1 [AZD7762] (partner 0.2 µM)
Assay: relative viability (nuclei count vs DMSO), 5 days (fraction); higher = more cells survive
Conditions: first compound 0.08 µM
Procedure, shortened: (§1)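 Values are medians from duplicate plates. Each reflects relative viability, defined as the nuclei count of treated wells over that of vehicle wells. Lung cancer cell lines in 1536-well plates were pin-tool dosed one day after seeding with one drug alone or with a fixed anchor-drug dose plus five library-drug doses (not always all listed) in √10 steps, then fixed, stained and imaged at 4× after 5 days.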

Row | Cell Line | relative viability
1 | RERF-LC-KJ | 1.42
2 | ABC-1 | 0.765
3 | NCI-H358 | 0.576
4 | NCI-H650 | 1.22
5 | PC-3 [JPC-3] | 0.72

Same assay, conditions: first compound 0.253 µM

Row | Cell Line | relative viability
6 | RERF-LC-KJ | 1.17
7 | ABC-1 | 0.671
8 | NCI-H358 | 0.521
9 | NCI-H650 | 1
10 | PC-3 [JPC-3] | 0.856

Same assay, conditions: first compound 0.8 µM

Row | Cell Line | relative viability
11 | RERF-LC-KJ | 1.18
12 | ABC-1 | 0.774
13 | NCI-H358 | 0.5
14 | NCI-H650 | 1.06
15 | PC-3 [JPC-3] | 0.866

Same assay, conditions: first compound 2.53 µM

Row | Cell Line | relative viability
16 | RERF-LC-KJ | 0.6
17 | NCI-H358 | 0.405
18 | NCI-H650 | 0.947
19 | PC-3 [JPC-3] | 0.828

Same assay, conditions: first compound 8 µM

Row | Cell Line | relative viability
20 | RERF-LC-KJ | 0.823
21 | ABC-1 | 0.729
22 | NCI-H358 | 0.435
23 | NCI-H650 | 1.24
24 | PC-3 [JPC-3] | 0.741

Compound: CC1=CC(=C(N1C2=CC=C(C=C2)Cl)C)C(=O)CN3CCCCC3 [IU1-47] + Cc1cc(Nc2cc(N3CCN(C)CC3)nc(Sc3ccc(NC(=O)C4CC4)cc3)n2)n[nH]1 [Tozasertib] (partner 0.1 µM)
Assay: as above
Conditions: first compound 0.08 µM
Procedure, shortened: as §1

Row | Cell Line | relative viability
25 | RERF-LC-KJ | 0.495
26 | ABC-1 | 0.188
27 | NCI-H358 | 0.089
28 | NCI-H650 | 0.759
29 | PC-3 [JPC-3] | 0.913

Same assay, conditions: first compound 0.253 µM

Row | Cell Line | relative viability
30 | RERF-LC-KJ | 0.567
31 | ABC-1 | 0.165
32 | NCI-H358 | 0.103
33 | NCI-H650 | 0.824
34 | PC-3 [JPC-3] | 0.903

Same assay, conditions: first compound 0.8 µM

Row | Cell Line | relative viability
35 | RERF-LC-KJ | 0.522
36 | ABC-1 | 0.158
37 | NCI-H358 | 0.0989
38 | NCI-H650 | 0.751
39 | PC-3 [JPC-3] | 0.922

Same assay, conditions: first compound 2.53 µM

Row | Cell Line | relative viability
40 | RERF-LC-KJ | 0.452
41 | NCI-H358 | 0.0928
42 | NCI-H650 | 0.779
43 | PC-3 [JPC-3] | 0.851

Same assay, conditions: first compound 8 µM

Row | Cell Line | relative viability
44 | RERF-LC-KJ | 0.405
45 | ABC-1 | 0.193
46 | NCI-H358 | 0.0979
47 | NCI-H650 | 0.698
48 | PC-3 [JPC-3] | 0.773

Compound: CC1=CC(=C(N1C2=CC=C(C=C2)Cl)C)C(=O)CN3CCCCC3 [IU1-47] + COc1cc2c(Oc3ccc(NC(=O)C4(C(=O)Nc5ccc(F)cc5)CC4)cc3F)ccnc2cc1OCCCN1CCOCC1 [Foretinib] (partner 0.25 µM)
Assay: as above
Conditions: first compound 0.08 µM
Procedure, shortened: as §1

Row | Cell Line | relative viability
49 | RERF-LC-KJ | 0.877
50 | ABC-1 | 1.1
51 | NCI-H358 | 0.828
52 | NCI-H650 | 1.06
53 | PC-3 [JPC-3] | 1.13

Same assay, conditions: first compound 0.253 µM

Row | Cell Line | relative viability
54 | RERF-LC-KJ | 0.918
55 | ABC-1 | 0.985
56 | NCI-H358 | 0.628
57 | NCI-H650 | 1.01
58 | PC-3 [JPC-3] | 1.11

Same assay, conditions: first compound 0.8 µM

Row | Cell Line | relative viability
59 | RERF-LC-KJ | 0.922
60 | ABC-1 | 1.06
61 | NCI-H358 | 0.863
62 | NCI-H650 | 1.02
63 | PC-3 [JPC-3] | 1.12

Same assay, conditions: first compound 2.53 µM

Row | Cell Line | relative viability
64 | RERF-LC-KJ | 0.868
65 | NCI-H358 | 0.652
66 | NCI-H650 | 0.881
67 | PC-3 [JPC-3] | 1.08

Same assay, conditions: first compound 8 µM

Row | Cell Line | relative viability
68 | RERF-LC-KJ | 0.893
69 | ABC-1 | 1.07
70 | NCI-H358 | 0.658
71 | NCI-H650 | 1.07
72 | PC-3 [JPC-3] | 1.05

Compound: Cc1nc(C(=O)NCC(=O)O)c(O)c2ccc(Oc3ccccc3)cc12 [FG-4592] + Cc1nc(NC(=O)N2CCC[C@H]2C(N)=O)sc1-c1ccnc(C(C)(C)C(F)(F)F)c1 [Alpelisib] (partner 2 µM)
Assay: as above
Conditions: first compound 0.08 µM
Procedure, shortened: as §1

Row | Cell Line | relative viability
73 | RERF-LC-KJ | 0.804
74 | ABC-1 | 1.17
75 | NCI-H358 | 0.864
76 | NCI-H650 | 1.03
77 | PC-3 [JPC-3] | 0.966

Same assay, conditions: first compound 0.253 µM

Row | Cell Line | relative viability
78 | RERF-LC-KJ | 0.749
79 | NCI-H358 | 0.686
80 | NCI-H650 | 1.01
81 | PC-3 [JPC-3] | 0.972

Same assay, conditions: first compound 0.8 µM

Row | Cell Line | relative viability
82 | RERF-LC-KJ | 0.723
83 | ABC-1 | 1.17
84 | NCI-H358 | 0.952
85 | NCI-H650 | 1.04
86 | PC-3 [JPC-3] | 1.1

Same assay, conditions: first compound 2.53 µM

Row | Cell Line | relative viability
87 | RERF-LC-KJ | 0.651
88 | ABC-1 | 0.958
89 | NCI-H358 | 0.865
90 | NCI-H650 | 0.939
91 | PC-3 [JPC-3] | 1

Same assay, conditions: first compound 8 µM

Row | Cell Line | relative viability
92 | RERF-LC-KJ | 0.774
93 | ABC-1 | 0.866
94 | NCI-H358 | 0.717
95 | NCI-H650 | 0.881
96 | PC-3 [JPC-3] | 1.03
